Substitutions are numbered along the chain they refer to.
Experiments:
wild-type ferrochelatase = molecular target: T1, wild-type ferrochelatase (Mus musculus, UniProt P22315); assay: Transient kinetic analysis of NMPP inhibition (stopped-flow, zinc-protoporphyrin formation); assay type: biochemical, murine
T1 construct: In wild-type, murine, mature ferrochelatase, five tryptophan residues; penta-histidine tag (N); made in house; host or cells: E. coli BL21(DE3)
T1 sequence (P22315 54-422): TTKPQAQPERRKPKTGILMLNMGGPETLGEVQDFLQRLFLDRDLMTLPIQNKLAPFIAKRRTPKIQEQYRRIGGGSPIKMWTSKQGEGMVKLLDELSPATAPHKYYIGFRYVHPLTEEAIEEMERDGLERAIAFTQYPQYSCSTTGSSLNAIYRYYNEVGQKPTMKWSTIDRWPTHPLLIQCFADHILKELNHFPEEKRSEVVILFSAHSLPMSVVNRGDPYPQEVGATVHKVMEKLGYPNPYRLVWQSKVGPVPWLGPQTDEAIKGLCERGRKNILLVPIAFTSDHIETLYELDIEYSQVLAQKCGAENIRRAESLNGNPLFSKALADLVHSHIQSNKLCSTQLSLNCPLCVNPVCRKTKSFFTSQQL
Method: (§1) Enzyme (0.5 μM) was reacted with protoporphyrin (5 μM) and zinc-acetate (15 μM) in the presence of various concentrations of NMPP. The pseudo first-order rate constant k was obtained from analysis of the time course (see Materials and Methods and FIG. 4) and plotted against NMPP concentration. The enzymes used in each set were: A. wild-type ferrochelatase; B. variant P255R; C. variant P255G.
(§2) In order to obtain the pseudo first-order rate constants for NMPP binding, the kinetic traces for zinc-protoporphyrin formation in the presence of various concentrations of inhibitor were fitted to equation 3. […] The data were fit to equation 1 for a two step process:
(§3) [formula] where k is the pseudo first-order rate constant for the approach to the steady-state phase, I0 is the inhibitor concentration, S0 is the initial substrate concentration,
(§4) [formula] is the apparent inhibition constant, Ki^app, and k2 and k−2 are the second step forward and reverse rate constants, respectively. […] A two kinetic step process for binding of NMPP to either wild-type ferrochelatase or P255R (i.e., a fast, initial step for NMPP binding to the enzyme, followed by a slow step, possibly related to a conformational rearrangement of the protein-inhibitor complex) is consistent with the porphyrin-triggered conformational change of the active-site pocket deduced from the analysis of the crystal structure of B. subtilis ferrochelatase with bound N-methyl mesoporphyrin in comparison with that of the unliganded protein. […] Therefore the diminished inhibition of variant P255R by NMPP (Ki^app=1 μM vs. Ki^app=3 nM for wild-type ferrochelatase) cannot be accounted for by differences in these rates.
(§5) Transient Kinetic Analysis. The kinetic steps involved in NMPP binding to ferrochelatase were assessed using stopped-flow absorption spectroscopic analysis by monitoring the enzymatic reaction in the presence of various concentrations of the inhibitor NMPP. The reactions were performed using a rapid scanning stopped-flow spectrophotometer (model RSM-1000; OLIS Inc.), equipped with a stopped-flow mixer and an observation chamber with an optical path-length of 4 mm. The dead time of the instrument is ˜2 ms. Scan spectra spanning the wavelength range of 347 to 574 nm were collected at a rate of 1000 scan/sec. The syringes containing the reaction components and the stopped-flow cell were maintained at 30° C. using an external water-bath. The concentrations of reagents loaded into each syringe were two-fold greater than the final concentrations in the observation chamber. Enzymatic activity was monitored by following the increase in absorbance at 420 nm for zinc-protoporphyrin production using Zn^2+ and protoporphyrin as substrates.
(§6) The enzyme and substrate stock solutions were diluted in 100 mM Tris-acetate, pH 8.0, containing 0.5% Tween-80. The stock solutions for substrates and inhibitor were prepared as follows: A 3 mM zinc-acetate solution was made by dissolving zinc-acetate in distilled and deionized H2O. A 200 μM protoporphyrin solution was prepared by dissolving protoporphyrin 1× in 50 mM NH4OH containing 0.5% Tween-80. A 2 mM NMPP solution was prepared by dissolving NMPP in 100 mM NH4OH containing 0.5% Tween-80. Typically, a 2 mL solution that was 1 μM in ferrochelatase and 10 μM in protoporphyrin was pre-incubated on ice for 30 min. The porphyrin-enzyme solution was titrated with NMPP. The mixture was subsequently transferred to one of the stopped-flow syringes. The other stopped-flow syringe was loaded with a reaction buffer solution of ˜2 mL that was 30 μM in zinc-acetate. The enzymatic reaction was initiated by mixing the contents from both syringes and reaction progression was monitored by following the increase in absorbance at 420 nm. The data were analyzed by fitting the observed absorbance values to equation 4: […]

[1] = molecular target: T2, ferrochelatase variant P255R (Mus musculus, UniProt P22315, P308R); assay: as above; assay type: biochemical, murine
T2 construct: In wild-type, murine, mature ferrochelatase, five tryptophan residues; penta-histidine tag (N); made in house; host or cells: E. coli BL21(DE3)
T2 sequence (P22315 54-422 P308R): T1 sequence (P22315 54-422) with P255R
Method: as §1, §2, §3, §4, §5, §6

[2] = two-step fit (equation 1), read-out: apparent inhibition constant Ki^app

second step forward rate constant k2 (wild-type ferrochelatase): 6.4 s⁻¹
second step reverse rate constant k−2 (wild-type ferrochelatase): 24.5 s⁻¹
Ki (wild-type ferrochelatase; [2]): 3 nM
second step forward rate constant k2 [1]: 8.3 s⁻¹
second step reverse rate constant k−2 [1]: 19.3 s⁻¹
Ki [1, 2]: 1000 nM
Substance: N-methyl protoporphyrin [NMPP]
